Reference: article PMC4644980, “The FDA-approved natural product dihydroergocristine reduces the production of the Alzheimer’s disease amyloid-β peptides” (Scientific Reports, 2015)
“And” between values parts separate entries of the source, which are not always exact repeats. Identical values can stand only once. Counter-ions that a name gives are not always drawn.

Key:
γ-secretase = γ-secretase (Homo sapiens, UniProt P49768+Q92542); assay: surface plasmon resonance, γ-secretase immobilized; assay type: binding; design: made in house; details: SPR, Biacore T100, NTA chip; read-out: equilibrium dissociation constant (Kd), γ-secretase
Procedure: (§1) A Biacore sensor Chip NTA that is designed to bind His-tagged proteins was used to immobilize γ-secretase. The SPR assay was performed in a running buffer (10 mM HEPES, 150 mM NaCl in the presence of 1% DMSO, pH 7.4). The purified His-tagged γ-secretase overexpressing human PS1, Flag-Pen-2, Aph-1a2-HA, and NCT-V5/His (see above) was diluted 6 times in DMSO-free running buffer. For each binding curve, the running buffer containing 500 μM NiCl2 was first injected to saturate the NTA chip. Then, His-tagged γ-secretase was injected and immobilized on the Ni^2+ -coated sensor chip. Compounds at the indicated concentrations were injected onto the surface of the sensor chip, and the corresponding binding spectrum was recorded. The sensor chip was regenerated with regeneration buffer (10 mM HEPES, 150 mM NaCl, 350 mM EDTA, pH 8.3). Purified human NCT (100 μg) was immobilized onto the flow cell of a CM5 sensor chip in 10 mM sodium acetate (pH 4.0) by using an amine coupling kit. The SPR assay was performed in HBS-P running buffer (10 mM HEPES, 150 mM NaCl and 0.005% surfactant P20 in the presence of 1% DMSO, pH 7.4). […] The Kd values were determined with Biacore evaluation 3.1 software.

purified γ-secretase = target: T1, purified γ-secretase (Homo sapiens, UniProt P49768+Q92542); assay: cell-free in vitro C100-Flag γ-secretase assay with purified enzyme; assay type: biochemical
T1 construct: made in house
Description: The density of the AICD-Flag and Aβ total bands was quantified by Odyssey software (Supplementary data Fig. S5). […] The residue was then separated by Bicine/urea SDS-PAGE, together with an Aβ standard of synthetic human Aβ38, Aβ40 and Aβ42, followed by Western blot detection with anti-Aβ antibody (6E10, left panel), or quantification by ELISA (right panel). Black bars, Aβ [1–40]; gray bars, Aβ[1–42]. Data were presented as the means ± sd. […] The change in response units over time is shown. […]
γ-Secretase was purified from S-20 cells as described previously. The recombinant APP-based protein substrate of γ-secretase, namely human C100-Flag, was overexpressed in E. coli and purified by using an anti-Flag M2 resin[31]. Full length human NCT was purified as described previously (for details, see Supplementary information)[32].
Cell-free in vitro γ-secretase assays using the recombinant C100-Flag substrate and purified γ-secretase were performed as described in the Supplementary information.
Aβ1-x peptides secreted in the cell media were quantitatively measured by ELISA (IBL, Gunma, Japan) according to the standard protocol from the manufacturer. Aβ40 and Aβ42 generated in the C100-Flag γ-secretase assays stopped with 0.5% SDS (final concentration) were quantified with the human Beta Amyloid or [1–42] colorimetric ELISA kit, respectively. […]
γ-Secretase activity assays
γ-Secretase purified from S-20 cells was solubilized in 0.2% (w/v) CHAPSO in 50 mM HEPES buffer (pH 7.0) containing of 150 mM NaCl, 5 mM MgCl2 and 5 mM CaCl2, and incubated with 0.1% (w/v) PC and 1 μM or otherwise indicated […]
concentrations of substrate at 37 °C for 4 h, after which the enzymatic reactions were stopped by adding 0.5% SDS (final concentration). The samples were analyzed by Western Blot for AICD-Flag or Aβ. […]

Nicastrin (NCT) = target: T2, Nicastrin (NCT) (Homo sapiens, UniProt Q92542); assay: surface plasmon resonance, Nicastrin immobilized; assay type: binding; details: SPR, Biacore T100, CM5 chip; read-out: equilibrium dissociation constant (Kd), Nicastrin (NCT)
T2 construct: Full length human NCT was purified as described previously; 6×His (C); FLAG (C); made in house; host or cells: High Five insect cells (baculovirus made in Sf9)
Procedure: as §1, with “software. […]” for “software.”
Recombinant bacmids were used to transfect Sf9 cells to make the baculovirus, which was then used to infect High Five suspension insect cells (Invitrogen). […]

T2 sequence (Q92542 34-709): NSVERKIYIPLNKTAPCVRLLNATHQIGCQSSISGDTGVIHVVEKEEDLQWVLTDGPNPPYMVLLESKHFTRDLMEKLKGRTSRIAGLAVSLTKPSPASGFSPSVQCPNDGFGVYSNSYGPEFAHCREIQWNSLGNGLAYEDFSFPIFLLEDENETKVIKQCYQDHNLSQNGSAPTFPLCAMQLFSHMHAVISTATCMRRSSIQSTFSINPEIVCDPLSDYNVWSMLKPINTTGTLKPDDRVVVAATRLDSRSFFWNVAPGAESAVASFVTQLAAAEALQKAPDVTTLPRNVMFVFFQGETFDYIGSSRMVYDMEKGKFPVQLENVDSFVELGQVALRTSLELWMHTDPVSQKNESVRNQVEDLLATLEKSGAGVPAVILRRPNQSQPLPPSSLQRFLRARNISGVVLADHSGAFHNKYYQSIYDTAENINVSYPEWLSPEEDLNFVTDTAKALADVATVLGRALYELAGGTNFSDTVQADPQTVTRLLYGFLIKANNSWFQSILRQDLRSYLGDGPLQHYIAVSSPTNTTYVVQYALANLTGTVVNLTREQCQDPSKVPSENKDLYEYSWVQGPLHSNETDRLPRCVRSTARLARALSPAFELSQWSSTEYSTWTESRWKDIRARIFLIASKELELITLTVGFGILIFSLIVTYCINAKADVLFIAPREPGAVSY

**Q.** What does the source list for CC(C)[C@@]1(NC(=O)[C@@H]2C[C@@H]3c4cccc5[nH]cc(c45)C[C@H]3N(C)C2)O[C@@]2(O)[C@@H]3CCCN3C(=O)[C@H](Cc3ccccc3)N2C1=O [DHEC, Dihydroergocristine methanesulfonate salt]?
**A.** Kd (γ-secretase): 0.0257 µM; γ-secretase-dependent processing of C100-Flag into AICD-Flag or Aβ (purified γ-secretase; 1 μM C100-Flag, 37 °C, 4 h): inhibited; inhibitory effect on γ-secretase at high substrate concentration (purified γ-secretase; 4 μM APP-C100 compared to 1 μM): greatly reduced inhibitory effect; The potency of compound (in vitro C100 γ-secretase assay) (purified γ-secretase; 200 µM, compared with DHEC, estimated by densitometry): ++; IC50 (purified γ-secretase; IC50, Aβ40 and Aβ42 production (cell-free assay), 1 μM C100-Flag, 37 °C, 4 h, ELISA): ~100 µM and 100 µM; Kd (Nicastrin (NCT)): 9.85 µM and ~10 µM and 9.8 µM and 10 µM
